# Assay results as given in US20250144067A1, “PERSONALIZED STARVATION THERAPY FOR CANCER” (Faeth Therapeutics, Inc., priority 2021, published 2025).
# Structures can show the parent of a compound that is named as a salt. Where two headings read alike, the source gives them in different places.
# Legend:
# [1] = tested on: NCI-H292 lung cancer cells; experiment: FDA drug screening, complete media vs cholesterol-free media without statin (TABLE 1); assay type: cell-based, human
# [2] = tested on: NCI-H292 lung cancer cells; experiment: FDA drug screening, complete media vs cholesterol-free media with simvastatin (TABLE 2); assay type: cell-based, human
# [3] = Complete minus Cholesterol-free, […]
# [4] = NCI-H292 cells, cholesterol-free media without statin, FDA drug library screen
# [5] = NCI-H292 cells, complete media, FDA drug library screen
# [6] = NCI-H292 cells, FDA drug library screen, cholesterol-free media with simvastatin 0.04 μM
# [7] = NCI-H292 cells, FDA drug library screen, complete media
# [8] = NCI-H292 cells, FDA drug library screen, cholesterol-free media without statin
# [9] = NCI-H292 cells, cholesterol-free media with simvastatin 0.04 μM, FDA drug library screen (TABLE 2)
# [10] = NCI-H292 cells, complete media, FDA drug library screen (TABLE 2)
# [11] = NCI-H292 cells, drug in cholesterol-free media with simvastatin 0.04 μM
# [12] = NCI-H292 cells, drug in complete media
# [13] = Complete minus Cholesterol-free, >0 enhanced anti-cancer activity, about 0 neutral, <0 antagonist
# [14] = complete media vs cholesterol-free media + simvastatin (0.04 μM), >0 enhanced anti-cancer activity, about 0 neutral, <0 antagonist
# [15] = complete media minus cholesterol-free media + simvastatin, >0 enhanced anti-cancer activity, about 0 neutral, <0 antagonist
# [16] = Complete minus Cholesterol-free, greater than 0 enhanced anti-cancer activity, about 0 neutral, below 0 antagonists
# [17] = NCI-H292 cells in cholesterol-free media without statin
# [18] = NCI-H292 cells in complete media
# [19] = complete vs cholesterol-free media, >0 enhanced anti-cancer activity, about 0 neutral, <0 antagonist
# [20] = NCI-H292 cells, cholesterol-free media with simvastatin 0.04 μM, cell growth value in FDA drug screen
# [21] = NCI-H292 cells, complete media, cell growth value in FDA drug screen
# [22] = Complete minus Cholesterol-free, greater than 0 enhanced anti-cancer activity, about 0 neutral, below 0 antagonist
# [23] = NCI-H292 cells, FDA library drug in cholesterol-free media with simvastatin 0.04 μM
# [24] = NCI-H292 cells, FDA library drug in complete media
# [25] = NCI-H292 cells, cholesterol-free media without statin
# [26] = complete vs cholesterol-free media, greater than 0 enhanced anti-cancer activity, about 0 neutral, below 0 antagonists
# [27] = complete media minus cholesterol-free media + simvastatin (0.04 μM), >0 enhanced anti-cancer activity, about 0 neutral, <0 antagonist
compound,measurement,setting,value
Cc1ccccc1-n1c(CF)nc2ccc(N)cc2c1=O [Afloqualone],Difference,[1]; [3],0.04
same,Cholesterol-free,[1]; [4],1.063
same,Complete,[1]; [5],1.104
same,Cholesterol-free media + simvastatin (0.04 μM),[2]; [6],1.16
same,Complete Media,[2]; [7],1.332
same,Difference,"[2]; complete media minus cholesterol-free media + simvastatin, […]",0.17
Gramicidin,Difference,[1]; [3],−0.14
same,Cholesterol-free,[1]; [8],0.1906
same,Complete,[1]; [7],0.04898
same,Cholesterol-free media + simvastatin (0.04 μM),[2]; [9],0.2157
same,Complete Media,[2]; [10],0.2144
same,Difference,"[2]; complete media minus cholesterol-free media + simvastatin (0.04 μM), […]",0.00
CC(C)C[C@H](N)C(=O)O [L-Leucine],Cholesterol-free,[1]; [4],1.354
same,Complete,[1]; [5],1.837
same,Difference,"[1]; complete vs cholesterol-free media, […]",0.48
same,Cholesterol-free media + simvastatin (0.04 μM),[2]; [11],1.064
same,Complete Media,[2]; [12],0.8826
same,Difference,"[2]; complete media vs cholesterol-free media + simvastatin (0.04 μM), […]",−0.18
N#CC[C@H](C1CCCC1)n1cc(-c2ncnc3[nH]ccc23)cn1 [Ruxolitinib],Difference,[1]; [13],−0.01
same,Cholesterol-free,[1]; [4],0.6188
same,Complete,[1]; [5],0.6101
same,Cholesterol-free media + simvastatin (0.04 μM),[2]; [6],0.6455
same,Complete Media,[2]; [7],0.5664
same,Difference,[2]; [14],−0.08
OCc1cc(C(O)CNCCCCCCOCCCCc2ccccc2)ccc1O (stereo not shown) [Salmeterol],Difference,[1]; [13],−0.01
same,Cholesterol-free,[1]; [4],0.865
same,Complete,[1]; [5],0.8548
same,Cholesterol-free media + simvastatin (0.04 μM),[2]; [6],0.6428
same,Complete Media,[2]; [7],0.8345
same,Difference,[2]; [15],0.19
FC(F)(F)c1ccc(CNc2ccc(Cc3c[nH]c4ncc(Cl)cc34)cn2)cn1 [Pexidartinib],Difference,[1]; [16],−0.77
same,Cholesterol-free,[1]; [17],1.609
same,Complete,[1]; [18],0.8353
same,Cholesterol-free media + simvastatin (0.04 μM),[2]; [11],1.767
same,Complete Media,[2]; [12],1.579
same,Difference,[2]; [14],−0.19
CC1(C)S[C@@H]2[C@H](NC(=O)C(c3ccccc3)S(=O)(=O)O)C(=O)N2[C@H]1C(=O)O (stereo partly shown) [Sulbenicillin (disodium)],Cholesterol-free,[1]; [4],0.8061
same,Complete,[1]; [5],1.226
same,Difference,[1]; [19],0.42
same,Cholesterol-free media + simvastatin (0.04 μM),[2]; [11],1.164
same,Complete Media,[2]; [12],0.9986
same,Difference,[2]; [14],−0.17
N[C@@H](Cc1c[nH]cn1)C(=O)O [L-Histidine],Difference,[1]; [16],−0.88
same,Cholesterol-free,[1]; [17],2.131
same,Complete,[1]; [18],1.254
same,Cholesterol-free media + simvastatin (0.04 μM),[2]; [20],1.86
same,Complete Media,[2]; [21],1.878
same,Difference,[2]; [15],0.02
CCCN1CCCC[C@H]1C(=O)Nc1c(C)cccc1C [Ropivacaine (hydrochloride)],Difference,[1]; [13],0.07
same,Cholesterol-free,[1]; [4],1.2
same,Complete,[1]; [5],1.265
same,Cholesterol-free media + simvastatin (0.04 μM),[2]; [11],1.189
same,Complete Media,[2]; [12],0.9899
same,Difference,[2]; [14],−0.20
Cc1ncc([N+](=O)[O-])n1CC(O)CN1CCOCC1 (stereo not drawn) [Morinidazole (R enantiomer)],Difference,[1]; [13],−0.04
same,Cholesterol-free,[1]; [4],1.104
same,Complete,[1]; [5],1.064
same,Cholesterol-free media + simvastatin (0.04 μM),[2]; [6],1.178
same,Complete Media,[2]; [7],1.022
same,Difference,[2]; [14],−0.16
CC(=O)Oc1c(C)c(C)c2c(c1C)CCC(C)(CCC[C@H](C)CCC[C@H](C)CCCC(C)C)O2 (stereo partly drawn) [D-α-Tocopherol acetate],Cholesterol-free,[1]; [4],0.7729
same,Complete,[1]; [5],1.233
same,Difference,[1]; [19],0.46
same,Cholesterol-free media + simvastatin (0.04 μM),[2]; [20],0.8974
same,Complete Media,[2]; [21],1.003
same,Difference,[2]; [15],0.11
NC(N)=Nc1nc(CSCCC(N)=NS(N)(=O)=O)cs1 [Famotidine],Difference,[1]; [22],−0.07
same,Cholesterol-free,[1]; [8],1.016
same,Complete,[1]; [7],0.9424
same,Cholesterol-free media + simvastatin (0.04 μM),[2]; [23],1.666
same,Complete Media,[2]; [24],1.298
same,Difference,[2]; [14],−0.37
CCN(CCO)CCCC(C)Nc1ccnc2cc(Cl)ccc12 (stereo not shown) [Hydroxychloroquine sulfate],Difference,[1]; [16],−0.72
same,Complete,[1]; [18],0.895
same,Cholesterol-free media + simvastatin (0.04 μM),[2]; [20],0.9769
same,Complete Media,[2]; [21],1.024
same,Difference,[2]; [15],0.05
CC(C)CN(C[C@@H](OP(=O)(O)O)[C@H](Cc1ccccc1)NC(=O)O[C@H]1CCOC1)S(=O)(=O)c1ccc(N)cc1 [Fosamprenavir (Calcium Salt)],Difference,[1]; [22],−0.11
same,Cholesterol-free,[1]; [8],1.061
same,Complete,[1]; [7],0.9495
same,Cholesterol-free media + simvastatin (0.04 μM),[2]; [20],0.8511
same,Complete Media,[2]; [21],0.8779
same,Difference,[2]; [15],0.03
Spiramycin,Difference,[1]; [16],−1.20
same,Cholesterol-free,[1]; [17],2.038
same,Complete,[1]; [18],0.8421
same,Cholesterol-free media + simvastatin (0.04 μM),[2]; [11],1.277
same,Difference,[2]; [14],−0.16
CN(C)C(=O)N[C@H]1CC[C@H](CCN2CCN(c3cccc(Cl)c3Cl)CC2)CC1 [Cariprazine (hydrochloride)],Difference,[1]; [22],−0.14
same,Cholesterol-free,[1]; [8],1.158
same,Complete,[1]; [7],1.021
same,Cholesterol-free media + simvastatin (0.04 μM),[2]; [6],1.127
same,Complete Media,[2]; [7],1.452
same,Difference,[2]; [15],0.32
C=C[C@H]1C[N@@]2CC[C@H]1C[C@H]2[C@H](O)c1ccnc2ccc(OC)cc12 [Quinine],Cholesterol-free,[1]; [25],1.498
same,Difference,[1]; [26],−0.37
same,Difference,[2]; [14],−0.10
OC(CCCN1CCCCC1)(c1ccccc1)c1ccccc1 [Diphenidol (hydrochloride)],Cholesterol-free,[1]; [25],1.3
same,Complete,"[1]; NCI-H292 cells, complete media",0.8776
same,Difference,[1]; [26],−0.42
same,Cholesterol-free media + simvastatin (0.04 μM),[2]; [6],0.9412
same,Complete Media,[2]; [7],1.206
same,Difference,[2]; [15],0.26
CCc1nc(C(N)=O)c(Nc2ccc(N3CCC(N4CCN(C)CC4)CC3)c(OC)c2)nc1NC1CCOCC1 [Gilteritinib],Cholesterol-free,[1]; [4],0.2961
same,Complete,[1]; [5],0.7497
same,Difference,[1]; [19],0.45
same,Cholesterol-free media + simvastatin (0.04 μM),[2]; [9],0.4196
same,Complete Media,[2]; [10],0.3685
same,Difference,[2]; [27],−0.05
O=C1C(CC[S+]([O-])c2ccccc2)C(=O)N(c2ccccc2)N1c1ccccc1 (stereo not shown) [Sulfinpyrazone],Cholesterol-free,[1]; [25],1.3
same,Complete,"[1]; NCI-H292 cells, complete media",0.9417
same,Difference,[1]; [26],−0.36
same,Cholesterol-free media + simvastatin (0.04 μM),[2]; [11],1.076
same,Complete Media,[2]; [12],0.9093
same,Difference,[2]; [14],−0.17
CC(C)N(CCC(C(N)=O)(c1ccccc1)c1ccccn1)C(C)C (stereo not shown) [Disopyramide],Difference,[1]; [22],−0.15
same,Cholesterol-free,[1]; [8],1.106
same,Complete,[1]; [7],0.9575
same,Cholesterol-free media + simvastatin (0.04 μM),[2]; [9],1.301
same,Complete Media,[2]; [10],1.257
same,Difference,[2]; [27],−0.04
C[C@]12C=CC(=O)N[C@@H]1CC[C@@H]1[C@@H]2CC[C@]2(C)[C@@H](C(=O)Nc3cc(C(F)(F)F)ccc3C(F)(F)F)CC[C@@H]12 [Dutasteride],Cholesterol-free,[1],0.7204
same,Complete,[1],0.8443
same,Difference,[1],0.12
same,Cholesterol-free media + simvastatin (0.04 μM),[2],1.633
same,Complete Media,[2],1.205
same,Difference,[2],−0.43
COc1ccc2c(c1)c(CC(=O)OCC(=O)O)c(C)n2C(=O)c1ccc(Cl)cc1 [Acemetacin],Cholesterol-free,[1]; [4],1.099
same,Complete,[1]; [5],1.479
same,Difference,[1]; [19],0.38
same,Cholesterol-free media + simvastatin (0.04 μM),[2]; [23],2.236
same,Complete Media,[2]; [24],1.509
same,Difference,[2]; [14],−0.73
